Read-outs that look alike come from different tables or passages of the source.
Key:
Type in all cases: cell-based
Conditions in all cases: Homo sapiens
CCRF-CEM = assay: NCI 60 five-dose screen CCRF-CEM
HS 578T = assay: NCI 60 five-dose screen HS 578T
[1] = tested on: MV-4-11 acute myeloid leukemia cells; assay: CellTiter-Glo 2.0 cell viability, MV-4-11
Method: 2019 October; 94(4): 1813-1823.
Cell viability was assessed using the CellTiter-Glo 2.0 assay from Promega, which yields a signal proportional to the amount of ATP present in a cell population. Compounds were first dispensed into empty 96-well flat-bottom tissue culture-treated plates (Corning) using an Echo550. MV4-1 cells were diluted to a density of 0.1 million cells per ml, pipetted onto the compounds at a density of 1,000 cells per well for U937 and 3,000 cells per well for MV4-11, mixed, and incubated for 3 days at 37° C. with 5% C02. After incubating, 5 μl of cells from each well were added to 5 μl of CellTiter-Glo 2.0 reagent in a384-well white ProxiPlate (PerkinElmer), incubated for 20 minutes at ambient temperature, and luminescence was analyzed on an EnSpire plate reader. Graphing and regression analysis was performed in Graphpad Prism.

PC-3 = assay: NCI 60 five-dose screen PC-3
NCI/ADR-RES = assay: NCI 60 five-dose screen NCI/ADR-RES
NCI-H226 = assay: NCI 60 five-dose screen NCI-H226
UACC-257 = assay: NCI 60 five-dose screen UACC-257
SK-MEL-5 = assay: NCI 60 five-dose screen SK-MEL-5
ACHN = assay: NCI 60 five-dose screen ACHN
A498 = assay: NCI 60 five-dose screen A498
OVCAR-5 = assay: NCI 60 five-dose screen OVCAR-5
NCI-H460 = assay: NCI 60 five-dose screen NCI-H460
RPMI-8226 = assay: NCI 60 five-dose screen RPMI-8226
BT-549 = assay: NCI 60 five-dose screen BT-549
MDA-MB-468 = assay: NCI 60 five-dose screen MDA-MB-468
NCI-H23 = assay: NCI 60 five-dose screen NCI-H23
DU-145 = assay: NCI 60 five-dose screen DU-145
U251 = assay: NCI 60 five-dose screen U251
MDA-MB-435 = assay: NCI 60 five-dose screen MDA-MB-435
OVCAR-3 = assay: NCI 60 five-dose screen OVCAR-3
SW-620 = assay: NCI 60 five-dose screen SW-620
UACC-62 = assay: NCI 60 five-dose screen UACC-62
NCI-H522 = assay: NCI 60 five-dose screen NCI-H522
HOP-62 = assay: NCI 60 five-dose screen HOP-62
SK-MEL-28 = assay: NCI 60 five-dose screen SK-MEL-28
[2] = read-out: LC50 (the source's name)
[3] = read-out: LC50 (the source's name) (converted)

O=c1ccc(Cn2c(C(F)(F)F)cc3c(Cl)ncnc32)c[nH]1 [NUCC-0226698]
GI50 (CCRF-CEM): 4.37 µM | IC50 (CCRF-CEM): 6.61 µM | IC (TGI) (CCRF-CEM): 100 µM | CC50 (CCRF-CEM; [2]): ≥ 100 µM | GI50 (HS 578T): 8.71 µM | IC50 (HS 578T): 100 µM | IC (TGI) (HS 578T): 50.1 µM | CC50 (HS 578T; [2]): ≥ 100 µM | IC50 ([1]; MV4-11, 72 h, MV-4-11 cells, 3 days, CellTiter-Glo 2.0, read-out: IC50 (uM) [Cell Type: MV-4-11]): 1.26 µM | IC50 ([1]; MV4-11, bound stated in text, read-out: IC50 against MV-4-11 acute myeloid leukemia cells): < 2 µM | GI50 (PC-3): 17 µM | IC50 (PC-3): 28.2 µM | IC (TGI) (PC-3): 56.2 µM | CC50 (PC-3; [3]): ≥ 100 µM | GI50 (NCI/ADR-RES): 14.1 µM | IC50 (NCI/ADR-RES): 27.5 µM | IC (TGI) (NCI/ADR-RES): 39.8 µM | CC50 (NCI/ADR-RES; [3]): ≥ 100 µM | GI50 (NCI-H226): 31.6 µM | IC50 (NCI-H226): 100 µM | IC (TGI) (NCI-H226): 100 µM | CC50 (NCI-H226; [3]): ≥ 100 µM | GI50 (UACC-257): 3.16 µM | IC50 (UACC-257): 6.46 µM | IC (TGI) (UACC-257): 12.9 µM | CC50 (UACC-257; [3]): 75.9 µM | GI50 (SK-MEL-5): 4.07 µM | IC50 (SK-MEL-5): 7.08 µM | IC (TGI) (SK-MEL-5): 15.1 µM | CC50 (SK-MEL-5; [3]): 38.9 µM | GI50 (ACHN): 22.4 µM | IC50 (ACHN): 33.9 µM | IC (TGI) (ACHN): 100 µM | CC50 (ACHN; [3]): ≥ 100 µM | GI50 (A498): ≥ 100 µM | IC50 (A498): 100 µM | IC (TGI) (A498): 100 µM | CC50 (A498; [3]): ≥ 100 µM | GI50 (OVCAR-5): 61.7 µM | IC50 (OVCAR-5): 100 µM | IC (TGI) (OVCAR-5): 100 µM | CC50 (OVCAR-5; [3]): ≥ 100 µM | GI50 (NCI-H460): 12 µM | IC50 (NCI-H460): 16.6 µM | IC (TGI) (NCI-H460): 36.3 µM | CC50 (NCI-H460; [3]): ≥ 100 µM | GI50 (RPMI-8226): 22.9 µM | IC50 (RPMI-8226): 38 µM | IC (TGI) (RPMI-8226): 100 µM | CC50 (RPMI-8226; [2]): ≥ 100 µM | GI50 (BT-549): 14.1 µM | IC50 (BT-549): 29.5 µM | IC (TGI) (BT-549): 28.8 µM | CC50 (BT-549; [3]): 58.9 µM | GI50 (MDA-MB-468): 2090 nM | IC50 (MDA-MB-468): 8.13 µM | IC (TGI) (MDA-MB-468): 5.75 µM | CC50 (MDA-MB-468; [3]): 25.1 µM | GI50 (NCI-H23): 3.98 µM | IC50 (NCI-H23): 8.71 µM | IC (TGI) (NCI-H23): 18.6 µM | CC50 (NCI-H23; [3]): 72.4 µM | GI50 (DU-145): 38.9 µM | IC50 (DU-145): 61.7 µM | IC (TGI) (DU-145): 100 µM | CC50 (DU-145; [3]): ≥ 100 µM | GI50 (U251; U-251): 22.4 µM | IC50 (U251; U-251): 33.1 µM | IC (TGI) (U251; U-251): 69.2 µM | CC50 (U251; U-251, read-out: LC50 (the source's name) (converted)): ≥ 100 µM | GI50 (MDA-MB-435): 4.68 µM | IC50 (MDA-MB-435): 7.24 µM | IC (TGI) (MDA-MB-435): 20.4 µM | CC50 (MDA-MB-435; [3]): 74.1 µM | GI50 (OVCAR-3): 14.8 µM | IC50 (OVCAR-3): 28.8 µM | IC (TGI) (OVCAR-3): 33.1 µM | CC50 (OVCAR-3; [3]): 72.4 µM | GI50 (SW-620): 5.5 µM | IC50 (SW-620): 7.08 µM | IC (TGI) (SW-620): 26.3 µM | CC50 (SW-620; [3]): ≥ 100 µM | GI50 (UACC-62): 5.5 µM | IC50 (UACC-62): 11 µM | IC (TGI) (UACC-62): 20 µM | CC50 (UACC-62; [3]): 53.7 µM | GI50 (NCI-H522): 2040 nM | IC50 (NCI-H522): 3.98 µM | IC (TGI) (NCI-H522): 4.9 µM | CC50 (NCI-H522; [3]): ≥ 100 µM | GI50 (HOP-62): 46.8 µM | IC50 (HOP-62): 100 µM | IC (TGI) (HOP-62): 100 µM | CC50 (HOP-62; [3]): ≥ 100 µM | GI50 (SK-MEL-28): 3.89 µM | IC50 (SK-MEL-28): 7.59 µM | IC (TGI) (SK-MEL-28): 18.6 µM | CC50 (SK-MEL-28; [3]): 66.1 µM

Source: patent US20240109903A1, “SUBSTITUTED HETEROCYCLES FOR TREATING CANCER” (Northwestern University, priority 2022, published 2024)
